Experimental data taken from US4973668A, “Variants of alpha 1-antitrypsin which are useful, in particular, as kallikrein inhibitors” (Transgene S.A., priority 1986, dated 1990).
Entries after “also recorded” stand apart in the source; their conditions may differ.

How the values were obtained:
[1] = test system: human plasma kallikrein; assay: antikallikrein activity, residual hydrolysis of chromozyme PK at 410 nm; assay type: biochemical
Experimental: The antikallikrein activity is assessed by measuring at 410 nm the residual extent of hydrolysis of chromosyme PK (benzoyl-Pro-Pre-Arg-4-nitroanilide acetate, Boehringer Mannheim).
2.6 pmol of human plasma kallikrein are preincubated at 37° C. with an increasing amount of inhibitor in 0.1 M Na phosphate/0.15 M NaCl buffer. After 30 minutes, the reaction is stopped by adding […] of substrate (final concentration 0.5 mM) and the residual enzyme activity is determined.

[2] = test system: human thrombin; assay: thrombin inhibition curves; assay type: biochemical; settings: FIG. 3; comparison with alpha1-AT(Arg358)
[3] = test system: human neutrophil elastase; assay: inhibition of human neutrophil elastase by E. coli extracts; assay type: biochemical; settings: clarified sonicated E. coli extracts; FIG. 1; compared with normal (Met358)alpha1-AT
Experimental: Clarified sonicated extracts were prepared from induced cultures of E. coli TGE900 containing one of the above three plasmids.
Aliquots of extracts are tested for their capacity to inhibit human neutrophil elastase (this technique having already been described).

[4] = test system: factor XIIF; settings: ratio versus C1 inhibitor; cited from earlier work
[5] = test system: human thrombin; settings: general statement on the earlier variant; cited from earlier work
[6] = test system: kallikrein; settings: ratio versus C1 inhibitor; cited from earlier work

Substance	inhibition of kallikrein ([1]; 2.6 pmol kallikrein, 37° C., 30 minutes preincubation, FIG. 2)	inhibition of kallikrein ([1]; 2.6 pmol kallikrein, 37° C., 30 minutes preincubation; FIG. 2; Arg^358) alpha1 -AT)	inhibition of thrombin [2]	inhibition of neutrophil elastase [3]	activity in inactivation of factor XIIF relative to C1 inhibitor [4]	antithrombin activity [5]	activity in inactivation of kallikrein relative to C1 inhibitor [6]
(Ala^357, Arg^358)alpha1 -AT: variant of human alpha1-antitrypsin, Pro357 replaced by Ala and Met358 by Arg, expressed in E. coli from plasmid pTG1946	very much improved	capable of rapidly inhibiting	very weak; also recorded: only very weakly	incapable of inhibiting	–	–	–
(Arg^358)alpha1 -AT: human alpha1-antitrypsin variant with Met358 replaced by arginine, described in WO 86/00,337; plasmid pTG1900	–	–	–	–	11.5 times	very substantial	4.1 times
